Reference: patent EP2970215B1, “PYRROLIDINE DERIVATIVES, PHARMACEUTICAL COMPOSITIONS CONTAINING THEM, AND THEIR USE IN THERAPY” (AbbVie Deutschland GmbH & Co. KG, priority 2013, dated 2014)

Target: T1, human GlyT1c transporter (Homo sapiens, UniProt P48067)
T1 construct: expressed in transfected cells; host or cells: CHO cells (recombinant; line hGlyT1c_5_CHO is named for the uptake assay)
T1 sequence (P48067 1-706): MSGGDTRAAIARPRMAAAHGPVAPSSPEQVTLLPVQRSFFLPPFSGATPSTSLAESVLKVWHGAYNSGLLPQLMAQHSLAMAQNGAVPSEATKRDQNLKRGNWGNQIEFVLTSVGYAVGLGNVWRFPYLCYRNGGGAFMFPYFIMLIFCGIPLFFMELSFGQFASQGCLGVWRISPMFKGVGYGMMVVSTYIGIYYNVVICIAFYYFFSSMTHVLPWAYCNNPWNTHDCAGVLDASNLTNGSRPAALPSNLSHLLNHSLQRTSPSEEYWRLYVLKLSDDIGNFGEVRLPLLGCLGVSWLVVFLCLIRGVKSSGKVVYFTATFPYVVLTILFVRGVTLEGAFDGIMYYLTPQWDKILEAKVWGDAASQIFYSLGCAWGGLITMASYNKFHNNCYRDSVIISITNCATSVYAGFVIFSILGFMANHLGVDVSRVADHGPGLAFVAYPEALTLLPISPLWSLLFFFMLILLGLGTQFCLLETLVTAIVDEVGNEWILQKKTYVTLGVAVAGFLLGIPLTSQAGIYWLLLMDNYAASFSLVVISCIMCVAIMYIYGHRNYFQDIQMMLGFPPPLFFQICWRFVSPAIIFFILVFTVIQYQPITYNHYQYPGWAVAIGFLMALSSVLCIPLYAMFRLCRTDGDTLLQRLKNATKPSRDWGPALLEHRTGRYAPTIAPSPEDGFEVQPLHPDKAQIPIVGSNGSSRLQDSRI
Assay: Radioligand binding assay using recombinant CHO cell membranes expressing human GlyT1
Details: radioligand binding to human GlyT1c transporter-expressing membranes
From the text: 2. Radioligand binding assays using recombinant CHO cell membranes expressing human GlyT1: […]

Row | SMILES | Ki [nM]
1 | Cn1cnc(S(=O)(=O)N2C[C@@H](C(=O)NCc3ccc(F)cc3)[C@H](c3ccc(F)cc3)C2)c1 (relative stereo) [Example 630, Trans-N-(4-fluorobenzyl)-4-(4-fluorophenyl)-1-[(1-methyl-1H-imidazol-4-yl)sulfonyl]pyrrolidine-3-carboxamide] | ≤ 100
2 | Cn1cnc(S(=O)(=O)N2C[C@@H](Nc3cccc(OCC(F)(F)F)c3)[C@H](c3ncccc3F)C2)c1 (relative stereo) [Example 800, Trans-4-(3-fluoropyridin-2-yl)-1-[(1-methyl-1H-imidazol-4-yl)sulfonyl]-N-[3-(2,2,2-trifluoroethoxy)phenyl]pyrrolidin-3-amine] | ≤ 10
3 | Cn1cnc(S(=O)(=O)N2C[C@@H](NC(=O)c3ccc(C#N)cc3)[C@H](c3ccccc3)C2)c1 (relative stereo) [Example 34, 4-cyano-N-{trans-1-[(1-methyl-1H-imidazol-4-yl)sulfonyl]-4-phenylpyrrolidin-3-yl} benzamide] | ≤ 10000
4 | Cn1cnc(S(=O)(=O)N2C[C@@H](CNc3ccc(C(F)(F)F)c(Cl)c3)[C@H](c3ccc(F)cc3)C2)c1 (relative stereo) [Example 311, 3-chloro-N-({trans-4-(4-fluorophenyl)-1-[(1-methyl-1H-imidazol-4-yl)sulfonyl]pyrrolidin-3-yl}methyl)-4-(trifluoromethyl)aniline] | ≤ 1000
5 | Cn1cnc(S(=O)(=O)N2C[C@@H](Nc3ccc(F)c(F)c3)[C@H](c3cccc(F)c3)C2)c1 (relative stereo) [Example 197, trans-N-(3,4-difluorophenyl)-4-(3-fluorophenyl)-1-[(1-methyl-1H-imidazol-4-yl)sulfonyl]pyrrolidin-3-amine] | ≤ 1000
6 | CCCS(=O)(=O)N1C[C@@H](NC(=O)c2cc(Cl)cc(Cl)c2)[C@H](c2ccccc2)C1 (relative stereo) [Example 126, 3,5-dichloro-N-[trans-4-phenyl-1-(propylsulfonyl)pyrrolidin-3-yl]benzamide] | ≤ 10000
7 | Cn1cnc(S(=O)(=O)N2C[C@@H](Nc3ccc(F)c(C(F)(F)F)c3)[C@H](c3ncccc3F)C2)c1 (relative stereo) [Example 767, Trans-4-(3-fluoropyridin-2-yl)-N-[4-fluoro-3-(trifluoromethyl)phenyl]-1-[(1-methyl-1H-imidazol-4-yl)sulfonyl]pyrrolidin-3-amine] | ≤ 100
8 | Cn1ccc2cc(S(=O)(=O)N3CC(Nc4ccc(F)c(F)c4)C(c4ccccc4)C3)ccc21 (stereo not drawn) [Example 503, N-(3,4-difluorophenyl)-1-[(1-methyl-1H-indol-5-yl)sulfonyl]-4-phenylpyrrolidin-3-amine] | ≥ 10000
9 | CCCc1cc(N[C@H]2CN(S(=O)(=O)c3cn(C)cn3)C[C@@H]2c2ccc(F)cc2)ncn1 [Example 616, N-{(3R,4S)-4-(4-fluorophenyl)-1-[(1-methyl-1H-imidazol-4-yl)sulfonyl]pyrrolidin-3-yl}-6-propylpyrimidin-4-amine] | ≤ 1000
10 | Cn1cnc(S(=O)(=O)N2C[C@@H](Nc3cccc(C(F)(F)F)n3)[C@H](c3ccc(F)cc3)C2)c1 (relative stereo) [Example 180, N-{trans-4-(4-fluorophenyl)-1-[(1-methyl-1H-imidazol-4-yl)sulfonyl]pyrrolidin-3-yl}-6-(trifluoromethyl)pyridin-2-amine] | ≤ 1000
11 | Cn1cnc(S(=O)(=O)N2C[C@@H](COc3ccc(F)c(Cl)c3)[C@H](c3ccc(F)cc3)C2)c1 (relative stereo) [Example 318, 4-{[Trans-3-[(3-chloro-4-fluorophenoxy)methyl]-4-(4-fluorophenyl)pyrrolidin-1-yl]sulfonyl}-1-methyl-1H-imidazole] | ≤ 1000
12 | Cc1nc(S(=O)(=O)N2C[C@H](Nc3ccc(F)c(C(F)(F)F)c3)[C@@H](c3ccc(F)cc3)C2)cn1C [Example 756, (3R,4S)-1-[(1,2-dimethyl-1H-imidazol-4-yl)sulfonyl]-4-(4-fluorophenyl)-N-[4-fluoro-3-(trifluoromethyl)phenyl]pyrrolidin-3-amine] | ≤ 10000
13 | Cc1c(C#N)cccc1N[C@@H]1CN(S(=O)(=O)c2cn(C)cn2)C[C@H]1c1ccccc1 (relative stereo) [Example 83, 2-methyl-3-({trans-1-[(1-methyl-1H-imidazol-4-yl)sulfonyl]-4-phenylpyrrolidin-3-yl}amino)benzonitrile] | ≤ 1000
14 | Cn1cnc(S(=O)(=O)N2CC(Nc3ccc(Cl)c(C(F)(F)F)c3)C(c3ncco3)C2)c1 (stereo not drawn) [Example 710, N-[4-chloro-3-(trifluoromethyl)phenyl]-1-[(1-methyl-1H-imidazol-4-yl)sulfonyl]-4-(1,3-oxazol-2-yl)pyrrolidin-3-amine] | ≤ 1000
15 | CC(CN[C@H]1CN(S(=O)(=O)c2cn(C)cn2)C[C@@H]1c1ccccc1)c1ccccc1 (stereo partly drawn) [Example 465, (3R,4S)-1-[(1-methyl-1H-imidazol-4-yl)sulfonyl]-4-phenyl-N-(2-phenylpropyl)pyrrolidin-3-amine] | ≤ 1000
16 | Cc1cc(CN[C@H]2CN(S(=O)(=O)c3cn(C)cn3)C[C@@H]2c2ccccc2)sc1C [Example 455, (3R,4S)-N-[(4,5-dimethylthiophen-2-yl)methyl]-1-[(1-methyl-1H-imidazol-4-yl)sulfonyl]-4-phenylpyrrolidin-3-amine] | ≤ 100
17 | CCCCC(=O)N[C@H]1CN(S(=O)(=O)c2cn(C)cn2)C[C@@H]1c1ccccc1 [Example 549, N-{(3R,4S)-1-[(1-methyl-1H-imidazol-4-yl)sulfonyl]-4-phenylpyrrolidin-3-yl}pentanamide] | ≤ 10000
18 | Cn1cnc(S(=O)(=O)N2C[C@@H](COc3ccc(F)c(C(F)(F)F)c3)[C@H](c3ccc(F)cc3)C2)c1 (relative stereo) [Example 295, 4-{[trans-3-(4-fluorophenyl)-4-{[4-fluoro-3-(trifluoromethyl)phenoxy]methyl}pyrrolidin-1-yl]sulfonyl}-1-methyl-1H-imidazole] | ≤ 100
19 | Cn1cnc(S(=O)(=O)N2C[C@H](NCc3scnc3-c3ccccc3)[C@@H](c3ccccc3)C2)c1 [Example 430, (3R,4S)-1-[(1-methyl-1H-imidazol-4-yl)sulfonyl]-4-phenyl-N-[(4-phenyl-1,3-thiazol-5-yl)methyl]pyrrolidin-3-amine] | > 10000
20 | CC(C)COc1cc(N[C@H]2CN(S(=O)(=O)c3cn(C)cn3)C[C@@H]2c2ccccc2)ncn1 [Example 624, N-{(3R,4S)-1-[(1-methyl-1H-imidazol-4-yl)sulfonyl]-4-phenylpyrrolidin-3-yl}-6-(2-methylpropoxy)pyrimidin-4-amine] | ≤ 1000
21 | Cn1cnc(S(=O)(=O)N2C[C@@H](Nc3cc(C(F)(F)F)ccc3F)[C@H](c3ccccc3)C2)c1 (relative stereo) [Example 224, trans-N-[2-fluoro-5-(trifluoromethyl)phenyl]-1-[(1-methyl-1H-imidazol-4-yl)sulfonyl]-4-phenylpyrrolidin-3-amine] | ≤ 1000
22 | Cc1cccc(NC[C@@H]2CN(S(=O)(=O)c3cn(C)cn3)C[C@H]2c2ccc(F)cc2)c1 (relative stereo) [Example 334, N-({Trans-4-(4-fluorophenyl)-1-[(1-methyl-1H-imidazol-4-yl)sulfonyl]pyrrolidin-3-yl}methyl)-3-methylaniline] | ≤ 1000
23 | Cn1cnc(S(=O)(=O)N2C[C@@H](NCc3ccncc3)[C@H](c3ccc(F)cc3)C2)c1 (relative stereo) [Example 270, trans-4-(4-fluorophenyl)-1-[(1-methyl-1H-imidazol-4-yl)sulfonyl]-N-(pyridin-4-ylmethyl)pyrrolidin-3-amine] | ≤ 10000
24 | CC(=O)Nc1ncc(S(=O)(=O)N2CC(Nc3ccc(F)c(F)c3)C(c3ccccc3)C2)s1 (stereo not drawn) [Example 499, N-[5-({3-[(3,4-difluorophenyl)amino]-4-phenylpyrrolidin-1-yl}sulfonyl)-1,3-thiazol-2-yl]acetamide] | ≥ 10000
25 | Cn1cnc(S(=O)(=O)N2C[C@@H](Nc3ccccn3)[C@H](c3ccccc3)C2)c1 (relative stereo) [Example 207, N-{trans-1-[(1-methyl-1H-imidazol-4-yl)sulfonyl]-4-phenylpyrrolidin-3-yl}pyridin-2-amine] | ≤ 10000

Same assay, conditions: radioligand binding, recombinant CHO cell membranes expressing human GlyT1c

Row | SMILES | Ki [nM]
26 | Cn1cnc(S(=O)(=O)N2C[C@@H](OCCNCC(F)(F)F)[C@H](c3ccc(F)cc3)C2)c1 (relative stereo) [Example 814, 2,2,2-trifluoro-N-[2-({trans-4-(4-fluorophenyl)-1-[(1-methyl-1H-imidazol-4-yl)sulfonyl]pyrrolidin-3-yl}oxy)ethyl]ethanamine] | ≤ 1000
27 | Cn1cnc(S(=O)(=O)N2C[C@@H](Nc3cccc(OCC(F)(F)F)c3)[C@H](C3CCCO3)C2)c1 (relative stereo) [Example 819, Trans-1-[(1-methyl-1H-imidazol-4-yl)sulfonyl]-4-(tetrahydrofuran-2-yl)-N-[3-(2,2,2-trifluoroethoxy)phenyl]pyrrolidin-3-amine] | ≤ 100
